Key:
[1] = target: T1, RORγt ligand-binding domain (RORγt-LBD) (Homo sapiens, UniProt P51449); experiment: Time-resolved FRET (TR-FRET) RORγt coactivator assay; format: biochemical; conditions: GST-RORγ-LBD, biotinylated RIP140 peptide, 2 hours; read-out: IC50, coactivator displacement
T1 construct: 20 nM recombinantly expressed RORγ-LBD fused to GST
T1 sequence (P51449 269-508 limits assumed): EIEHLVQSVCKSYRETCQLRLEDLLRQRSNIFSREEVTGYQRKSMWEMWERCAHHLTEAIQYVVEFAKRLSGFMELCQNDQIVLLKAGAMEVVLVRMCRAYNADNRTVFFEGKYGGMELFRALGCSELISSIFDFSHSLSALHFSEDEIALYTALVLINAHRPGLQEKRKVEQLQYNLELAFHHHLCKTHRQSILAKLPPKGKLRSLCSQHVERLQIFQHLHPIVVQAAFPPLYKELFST
From the text: Time-resolved FRET (TR-FRET) RORγt coactivator assay was used to identify RORγ modulator compounds with ligand-dependent coactivator displacement. The assay uses a d2-labeled anti-GST antibody, synthetic N-terminally biotinylated peptide which is derived from nuclear receptor coactivator protein RIP140, and a RORγt ligand-binding domain (RORγt-LBD) that is tagged with glutathione-S-transferase (GST). The influence of compounds on the RORγ-peptide interaction relies on the binding dependent energy transfer from a donor to an acceptor fluorophor attached to the binding partner of interest. […] For reduction of background from compound fluorescence, TR-FRET method makes use of generic fluorophore labels and time resolved detection.
The assays were done in a final volume of 20 μl in a 384 well plate in a CHAPS buffer (2 mM CHAPS; 1 mM DTT, 2 mM EDTA; 0.1% BSA), containing 20 nM recombinantly expressed RORγ-LBD fused to GST, 30 nM N-terminally biotinylated peptide, 1 nM streptavidin-terbium conjugate and 20 nM d2 labeled-anti-GST. Test compounds were diluted using 10 mM stock solution. The range of the final compound concentrations used in this test was from 0.3 nM to 30 μM (logarithmic scale). DMSO content of the samples was kept at 1%. The assay was equilibrated for 2 hours in the dark at room temperature in 384 well plates (Falcon). The signal was detected by an Ultra384 reader (TECAN). […] Compounds that promote coactivator displacement induce a concentration-dependent decrease in time-resolved fluorescent signal. Data were collected and analyzed using GraphPad Prism software (GraphPad Software V5.02, San Diego California USA). IC50 in μM and Emax in % were reported for each compound.

human RORγt = target: T2, human RORγt (Homo sapiens, UniProt P51449); experiment: RORE Luciferase/RORγt transactivation assay; format: cell-based; conditions: COS-7 cells, human IL-17 promoter reporter + RORγt plasmid, 20 h; read-out: IC50, inhibition of RORγt activity (luciferase)
T2 construct: the full-length cDNA of human RORγt; expressed in transfected cells; host or cells: COS-7 (monkey kidney)
T2 sequence (P51449 1-497 isoform P51449-2): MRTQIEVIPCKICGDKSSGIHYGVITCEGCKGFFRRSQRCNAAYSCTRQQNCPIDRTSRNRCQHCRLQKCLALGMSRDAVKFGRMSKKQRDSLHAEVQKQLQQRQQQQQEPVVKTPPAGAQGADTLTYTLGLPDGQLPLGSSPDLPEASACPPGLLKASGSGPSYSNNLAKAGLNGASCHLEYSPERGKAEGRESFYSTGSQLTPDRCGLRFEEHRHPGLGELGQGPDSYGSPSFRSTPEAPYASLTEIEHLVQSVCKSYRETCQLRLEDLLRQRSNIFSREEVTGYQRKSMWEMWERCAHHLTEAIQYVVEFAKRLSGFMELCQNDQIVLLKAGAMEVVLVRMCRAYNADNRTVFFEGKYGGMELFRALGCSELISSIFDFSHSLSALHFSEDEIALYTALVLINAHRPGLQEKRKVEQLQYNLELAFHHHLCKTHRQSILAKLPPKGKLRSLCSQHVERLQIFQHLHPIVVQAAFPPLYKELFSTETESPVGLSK
Description: It is well known that RORγ binds to a conserved non-coding sequence (CNS) enhancer element in the IL-17 promoter.
Culture medium was changed every 2 days.
The 4.3 Kb human IL-17 promoter containing the RORγ-specific CNS enhancer element was PCR amplified from human genomic DNA and cloned into a pGL3-TKLuc2Cp reporter plasmid.
The luciferase reporter plasmid and the RORγt overexpression plasmid were transfected into COS-7 cell line using 4 μLJetPEITM/μg of DNA. Briefly, 150 ng of DNA (ration ½ between RORE-Tk Luc2Cp and cDNA RORγt or the empty vector for the negative control) was served to transfect adherent COS-7 cells in a […] culture flask, in complete medium (see cos-7 cell line culture).
Cells were then detached (using trypsin) and washed by centrifugation at 300 g for 10 minutes. Cell pellet was resuspended in serum free/phenol red free DMEM and seeded in 384 well plates at a density of 10000 cells/well and then incubated for 4h at 37° C.
Compounds were dissolved in 100% DMSO to obtain 10 mM stock solutions. For each compound, test concentrations were diluted in serum free/phenol red free DMEM using the Genesis Freedom 200™ (TECAN) and added to the cells to obtain a 0.3% DMSO final concentration (in a final volume of 40 μL per well).
The luciferase activity was then measured with 40 μL/well steady-Glo Luciferase assay system (Promega, Madison, WI) and after incubation at room temperature for 30 minutes. The luminescence was estimated using the Ultra384 reader (TECAN). Data were collected and analyzed using GraphPad Prism software (GraphPad Software V5.02, San Diego California USA). IC50 in μM and Emax in % were reported for each compound.

[2] = cited from earlier work

Row | SMILES | IC50 [1] [µM] | IC50 (human RORγt) [µM] | reduction in the Psoriasis Area Severity Index (PASI) score relative to placebo ([2]; 350 mg dose group) [%] | placebo-adjusted PASI score reduction ([2]; 700 mg dose group) [%] | plasma IL-17 levels relative to placebo ([2]; patients with moderate to severe psoriasis)
1 | CCS(=O)(=O)c1ccc(CNC(=O)c2cnc3c(c2)CN(C[C@H]2CC[C@H](C(F)(F)F)CC2)[C@H]3C(C)C)nc1 [VTP-43742] | – | – | 24 | 30 | reduced
2 | CC(=O)C1CCN(c2ncc(CC(=O)NC(c3ccc(C)o3)c3ccc(C)cc3C)cn2)CC1 (stereo not shown) [Cpd.6, 2-[2-(4-acetylpiperidin-1-yl)pyrimidin-5-yl]-N-[(2,4-dimethylphenyl)(5-methylfuran-2-yl)methyl]acetamide] | 0.1 to 1 | 1 to 10 | – | – | –
3 | Cc1ccc(C(NC(=O)Cc2ccc(N3CCC(S(C)(=O)=O)CC3)nc2)c2ccc(C)o2)c(N2CCCCC2)c1 (stereo not shown) [Cpd.2, 2-[6-(4-methanesulfonylpiperidin-1-yl)pyridin-3-yl]-N-{[4-methyl-2-(piperidin-1-yl)phenyl](5-methylfuran-2-yl)methyl}acetamide] | < 0.1 | 0.1 to 1 | – | – | –
4 | CC(=O)C1CCN(c2ncc(CC(=O)NC(c3ccc(C)o3)c3ccc(C)cc3N3CCCCC3)cn2)CC1 (stereo not shown) [Cpd.8, 2-[2-(4-acetylpiperidin-1-yl)pyrimidin-5-yl]-N-{[4-methyl-2-(piperidin-1-yl)phenyl](5-methylfuran-2-yl)methyl}acetamide] | 0.1 to 1 | 0.1 to 1 | – | – | –
5 | COC(=O)C1CCN(c2ncc(CC(=O)NC(c3ccc(C)o3)c3ccc(C)cc3N3CCCCC3)cn2)CC1 (stereo not shown) [Cpd.7, methyl 1-{5-[({[4-methyl-2-(piperidin-1-yl)phenyl](5-methylfuran-2-yl)methyl}carbamoyl)methyl]pyrimidin-2-yl}piperidine-4-carboxylate] | 0.1 to 1 | 1 to 10 | – | – | –
6 | Cc1ccc(C(NC(=O)Cc2cccc(N3CCN(C(=O)C(F)(F)F)CC3)n2)c2ccc(C)o2)c(N2CCCCC2)c1 (stereo not shown) [Cpd.16, N-{[4-methyl-2-(piperidin-1-yl)phenyl](5-methylfuran-2-yl)methyl}-2-{6-[4-(trifluoroacetyl)piperazin-1-yl]pyridin-2-yl}acetamide] | 0.1 to 1 | 0.1 to 1 | – | – | –
7 | Cc1ccc(C(NC(=O)Cc2cnc(N3CCCC(S(C)(=O)=O)C3)nc2)c2ccc(C)o2)c(N2CCCCC2)c1 (stereo not shown) [Cpd.17, 2-[2-(3-methanesulfonylpiperidin-1-yl)pyrimidin-5-yl]-N-{[4-methyl-2-(piperidin-1-yl)phenyl](5-methylfuran-2-yl)methyl}acetamide] | < 0.1 | < 0.1 | – | – | –
8 | Cc1ccc(C(NC(=O)Cc2ccc(N3CCN(S(C)(=O)=O)CC3)nc2)c2ccc(C)o2)c(N2CCCCC2)c1 (stereo not shown) [Cpd.1, 2-[6-(4-methanesulfonylpiperazin-1-yl)pyridin-3-yl]-N-{[4-methyl-2-(piperidin-1-yl)phenyl](5-methylfuran-2-yl)methyl}acetamide] | < 0.1 | 0.1 to 1 | – | – | –
9 | CC(=O)N1CCN(c2cncc(CC(=O)NC(c3ccc(C)o3)c3ccc(C)cc3N3CCCCC3)c2)CC1 (stereo not shown) [Cpd.14, 2-[5-(4-acetylpiperazin-1-yl)pyridin-3-yl]-N-{[4-methyl-2-(piperidin-1-yl)phenyl](5-methylfuran-2-yl)methyl}acetamide] | < 0.1 | 0.1 to 1 | – | – | –
10 | Cc1ccc(C(NC(=O)Cc2ccc(N3CCNCC3)nc2)c2ccc(C)o2)c(N2CCCCC2)c1 (stereo not shown) [Cpd.10, N-{[4-methyl-2-(piperidin-1-yl)phenyl](5-methylfuran-2-yl)methyl}-2-[6-(piperazin-1-yl)pyridin-3-yl]acetamide] | < 0.1 | 0.1 to 1 | – | – | –

Second part, led by results:

Row | IC50 [1] [µM] | IC50 (human RORγt) [µM] | SMILES | reduction in the Psoriasis Area Severity Index (PASI) score relative to placebo ([2]; 350 mg dose group) [%] | placebo-adjusted PASI score reduction ([2]; 700 mg dose group) [%] | plasma IL-17 levels relative to placebo ([2]; patients with moderate to severe psoriasis)
11 | < 0.1 | 0.1 to 1 | CC(=O)N1CCN(c2nccc(CC(=O)NC(c3ccc(C)o3)c3ccc(C)cc3N3CCCCC3)n2)CC1 (stereo not shown) [Cpd.15, 2-[2-(4-acetylpiperazin-1-yl)pyrimidin-4-yl]-N-{[4-methyl-2-(piperidin-1-yl)phenyl](5-methylfuran-2-yl)methyl}acetamide] | – | – | –
12 | < 0.1 | 0.1 to 1 | Cc1ccc(C(NC(=O)Cc2cnc(N3CCC(S(C)(=O)=O)CC3)nc2)c2ccc(C)o2)c(N2CCCCC2)c1 (stereo not shown) [Cpd.5, 2-[2-(4-methanesulfonylpiperidin-1-yl)pyrimidin-5-yl]-N-{[4-methyl-2-(piperidin-1-yl)phenyl](5-methylfuran-2-yl)methyl}acetamide] | – | – | –
13 | < 0.1 | < 0.1 | CC(=O)N1CCN(c2cccc(CC(=O)NC(c3ccc(C)o3)c3ccc(C)cc3N3CCCCC3)n2)CC1 (stereo not shown) [Cpd.12, 2-[6-(4-acetylpiperazin-1-yl)pyridin-2-yl]-N-{[4-methyl-2-(piperidin-1-yl)phenyl](5-methylfuran-2-yl)methyl}acetamide] | – | – | –
14 | < 0.1 | 0.1 to 1 | Cc1ccc(C(NC(=O)Cc2cnc(N3CCN(S(C)(=O)=O)CC3)nc2)c2ccc(C)o2)c(N2CCCCC2)c1 (stereo not shown) [Cpd.4, 2-[2-(4-methanesulfonylpiperazin-1-yl)pyrimidin-5-yl]-N-{[4-methyl-2-(piperidin-1-yl)phenyl](5-methylfuran-2-yl)methyl}acetamide] | – | – | –
15 | < 0.1 | < 0.1 | CC(=O)N1CCN(c2ncc(C3(C(=O)NC(c4ccc(C)o4)c4ccc(C)cc4N4CCCCC4)CC3)cn2)CC1 (stereo not shown) [Cpd.11, 1-[2-(4-acetylpiperazin-1-yl)pyrimidin-5-yl]-N-{[4-methyl-2-(piperidin-1-yl)phenyl](5-methylfuran-2-yl)methyl}cyclopropane-1-carboxamide] | – | – | –
16 | 0.1 to 1 | 0.1 to 1 | Cc1ccc(C(NC(=O)Cc2ccc(N3CCN(C(=O)OC(C)(C)C)CC3)nc2)c2ccc(C)o2)c(N2CCCCC2)c1 (stereo not shown) [Cpd.3, tert-butyl 4-{5-[({[4-methyl-2-(piperidin-1-yl)phenyl](5-methylfuran-2-yl)methyl}carbamoyl)methyl]pyridin-2-yl}piperazine-1-carboxylate] | – | – | –
17 | < 0.1 | 1 to 10 | Cc1ccc(C(NC(=O)Cc2cnc(N3CCC(C(=O)O)CC3)nc2)c2ccc(C)o2)c(N2CCCCC2)c1 (stereo not shown) [Cpd.9, 1-{5-[({[4-methyl-2-(piperidin-1-yl)phenyl](5-methylfuran-2-yl)methyl}carbamoyl)methyl]pyrimidin-2-yl}piperidine-4-carboxylic acid] | – | – | –
18 | < 0.1 | 0.1 to 1 | CC(=O)N1CCN(c2ncc(CC(=O)NC(c3ccc(C)o3)c3ccc(C)cc3N3CCCCC3)cn2)CC1 (stereo not shown) [Cpd.13, 2-[2-(4-acetylpiperazin-1-yl)pyrimidin-5-yl]-N-{[4-methyl-2-(piperidin-1-yl)phenyl](5-methylfuran-2-yl)methyl}acetamide] | – | – | –

— patent publication US11974997B2, “RORgamma modulators and uses thereof” (Genfit, priority 2017, dated 2024)
